Data: PMC12679585, “Design, synthesis, and characterization of novel 5-ethylsulfonyl-indazole-3-carboxamides as dual VEGFR-2 and EGFR inhibitors: apoptotic antiproliferative and immunomodulatory evaluations” (RSC Advances, 2025)
Several values for one entry are separate records, joined by “and”; a condition that tells them apart may be missing. Equal values may be shown once.

Legend:
[1] = test system: TNF-α; assay: TNF-α level by qRT-PCR in HCT-116 cells; conditions: for TNF-α (% inhibition): HCT-116 cells, 24 hours, at IC50 against HCT-116 (8g 24 nM, 8h 23 nM), qRT-PCR
Experimental: (§3) The reference molecule was dexamethasone, a drug that uniformly regulates the immune system.
TNF-α and IL6 a determination
(§4) determined using of q RT-PCR technique. By using q RTPCR (reference), the amount
(§5) treated HCT-116 cells was measured (at the IC50 concentrations). Total RNA was
(§6) accordance with the manufacturer's instructions (RNeasy mini kit, Qiagen, Germany).
(§7) Following RNA extraction, the Revert Aid First Strand cDNA Synthesis kit (Thermo
(§8) Scientific, USA) was used to create cDNA. The Rotor-Gene Q real-time PCR thermal
(§9) cycler was used to amplify target cDNA for apoptosis markers and GAPDH [as a
(§10) normalization (housekeeping) gene] using one step RT-PCR SYBR® Green kit Master
(§11) Mix (Bio-Rad Laboratories, USA). Two microliters of cDNA were combined with one
(§12) microliter of forward primer, one microliter of reverse primer, ten microliters of master
(§13) mixture, and twenty microliters of nuclease-free water to complete the reaction volume.
(§14) Every experiment was carried out three times.
(§15) Quantitative Real Time Reverse-Transcriptase PCR (qRT-PCR) primer sequences
TNF-α : R 5'- [sequence] -3'.
IL6 : R 5'- [sequence] -3
GAPDH : R 5’- [sequence]-3’

[2] = test system: Caspase-3; assay: Caspase-3 activation assay in HCT-116 cells; assay type: cell-based, human; conditions: for Caspase-3 fold change: relative to control
Experimental: (§1) Appendix A gives more details.
Additionally, activating caspases is essential for both initiating and terminating the apoptotic process.[64] Caspase-3 is an essential enzyme that cleaves several proteins within cells, leading to apoptotic cell death.[65] […]
be read immediately after the Stop Solution is added or within one hour if the microwell strips are stored at 2 - 8°C in the dark. Read the absorbance of each microwell on a spectrophotometer using 450 nm as the primary wavelength.
4.2.5. Caspase-3 activation assay
Allow all reagents to reach room temperature before use. Gently mix all liquid reagents prior to use. Determine the number of 8-well strips needed for the assay. Insert these in the frame(s) for current use. Add 100 μl of the Standard Diluent Buffer to the zero standard wells. Well(s) reserved for chromogen blank should be left empty. Add 100 μl of standards and controls or diluted samples to the appropriate microtiter wells. The sample dilution chosen should be optimized for each experimental system. Tap gently on side of plate to mix. Cover wells with plate cover and incubate for 2 hours at room temperature. Thoroughly aspirate or decant solution from wells and discard the liquid, Wash wells 4 times. Pipette 100 μl of Caspase-3 (Active) Detection Antibody solution into each well except the chromogen blank(s). Tap gently on the side of the plate to mix. Cover plate with plate cover and incubate for 1 hour at room temperature.
Thoroughly aspirate or decant solution from wells and discard the liquid, Wash wells 4 times. Add 100 μl Anti-Rabbit IgG HRP Working Solution to each well except the chromogen blank(s). Prepare the working dilution as described in Preparing IgG HRP.
Cover wells with the plate cover and incubate for 30 minutes at room temperature.
Thoroughly aspirate or decant solution from wells and discard the liquid. Wash wells 4 times. Add 100 μl of Stabilized Chromogen to each well. The liquid in the wells will […]
begin to turn blue. […] The
Tap side of plate gently to mix.
Use a curve fitting software to generate […]
for the dilution in step 3.
4.2.6. Caspase-8/9 activation assay
This lysate was diluted in […]

[3] = test system: Bcl-2; assay: Apoptotic markers assay: Bcl-2 level in HCT-116 cells; assay type: cell-based, human
Text: as §1
Apoptosis dysregulation is a hallmark of human cancer, resulting in uncontrolled proliferation, insufficient response to treatments, and the formation of drug-resistant cells.[60] As a result, current anticancer therapies are recognized for their ability to induce apoptosis in cancer cells via both extrinsic and intrinsic routes.[56]
The Bcl-2 protein family, comprising pro-apoptotic proteins (Bax) and anti-apoptotic proteins (Bcl-2), primarily regulates apoptosis. […] As a result, we evaluated the level of Bcl-2 and Bax proteins in HCT-116 colorectal cancer cells subjected to treatments with compounds 8g and 8h. […]
wash solution to every well. Repeat the wash 4 more times for a total of 5 washes. After the final wash, empty or aspirate the wells and firmly tap the plate on a lint free paper towel to remove any remaining wash buffer. Pipet 100 μL of yellow Antibody into each well, except the Blank. Seal the plate and incubate at room temperature on a plate shaker for 1 hour at ~500 rpm. Empty the contents of the wells and wash by adding 400 μL of […]
towel to remove any remaining wash buffer. Add 100 μL of blue Conjugate to each […]
for 30 minutes at ~500 rpm. Empty the contents of the wells and wash by adding 400 μL of wash solution to every well. Repeat the wash 4 more times for a total of 5 washes.
After the final wash, empty or aspirate the wells and firmly tap the plate on a lint free paper towel to remove any remaining wash buffer. Pipet 100 μL of Substrate Solution into each well. Incubate for 30 minutes at room temperature on a plate shaker at ~500 rpm. Pipet 100 μL Stop Solution to each well. Blank the plate reader against the Blank wells, read the optical density at 450 nm. Calculate the average net Optical Density (OD) bound for each standard and sample by subtracting the average Blank OD from the average OD for each standard and sample. […]
Approximate a straight line through the points. The concentration of Bax in the unknowns can be determined by interpolation. […]

[4] = test system: IL-6; assay: IL-6 level by qRT-PCR in HCT-116 cells; conditions: Homo sapiens, HCT-116, read-out: IL-6 (% inhibition)
Experimental: as §3
TNF-α and IL6 a determination
as §4, §5, §6, §7, §8, §9, §10, §11, §12, §13, §14, §15
TNF-α : R 5'- [sequence] -3'.
IL6 : R 5'- [sequence] -3
GAPDH : R 5’- [sequence]-3’

[5] = In vitro cytotoxicity against normal human cells (MTT); assay type: cell-based; conditions: human, WI-38 cells (normal human diploid cell line), normal human diploid cell line WI-38, MTT
Text: (§2) The results indicated a favorable safety margin for the evaluated compounds about normal cells, Table 5.

[6] = test system: WI-38; assay: as above; assay type: cell-based; conditions: for Selectivity index (SI), HCT-116: WI-38 versus HCT-116; for Selectivity index (SI), MCF-7: WI-38 versus MCF-7; for IC50: normal human diploid cell line WI-38, MTT
Text: as §2

[7] = Homo sapiens, HCT-116, read-out: TNF-α (% inhibition), HCT-116 cells, 24 hours, at IC50 against HCT-116 (8g 24 nM, 8h 23 nM), qRT-PCR

Row | Compound | TNF-α (% inhibition) [1] [%] | inhibition at 0.024 µM [1, 7] [%] | Caspase-3 Conc. [2] | Caspase-3 fold change [2] [fold] | Bcl-2 level [3] [ng/mL] | inhibition at 0.024 µM [4] [%] | IC50 [5] [nM] | Selectivity index (SI), HCT-116 [6] | Selectivity index (SI), MCF-7 [6] | IC50 [6] [nM] | inhibition at 0.023 µM [1, 7] [%] | Bcl-2 fold reduction ([3]; relative to untreated control) [fold] | inhibition at 0.023 µM [4] [%]
1 | CCS(=O)(=O)c1ccc2[nH]nc(C(=O)NNC(=O)NC34CC5CC(CC(C5)C3)C4)c2c1 [Compound 8g, 2-(5-(Ethylsulfonyl)-1H-indazole-3-carbonyl)-N-(adamantan-1-yl)hydrazine-1-carboxamide] | 79 | ~80 | 490 ± 3 pg/mL and 490 ± 5 pg/mL | 7.50 | 1.60 ± 0.001 | 86 | > 120 | >6.0 | >5.0 | > 150 | – | – | –
2 | CCS(=O)(=O)c1ccc2[nH]nc(C(=O)NNC(=O)NC3CCCCCC3)c2c1 [Compound 8h, 2-(5-(Ethylsulfonyl)-1H-indazole-3-carbonyl)-N-(cycloheptyl)hydrazine-1-carboxamide] | 82 | – | 510 ± 4 pg/mL and 510 ± 5 pg/mL | 7.90 | 1.30 ± 0.001 | – | > 120 | >6.5 | >6.0 | > 150 | ~80 | 3.90 | 91
